In patent US7906655B2, “Hepatitis C virus inhibitors” (Bristol-Myers Squibb Company, priority 2008, dated 2011):

Test system: HCV 1b genotype
Test: HCV Replicon assay (HCV-neo replicon cells, wild-type)
Type: cell-based
Settings: HCV 1b genotype replicon
How it was run: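 Assay used wild-type HCV genotype 1b replicon cells carrying neo, with luciferase reporter read-outs in some formats.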

[1] = Hepatitis C virus, class symbols
[2] = Hepatitis C virus, numeric values

SMILES	EC50 [1]	other results
O=C(c1nc(Cl)cc2ccccc12)N1CCC[C@H]1c1nc2cc(C#Cc3ccc4nc([C@@H]5CCCN5C(=O)c5nc(Cl)cc6ccccc56)[nH]c4c3)ccc2[nH]1 [Example M26.2, 3-chloro-1-(((2S)-2-(5-((2-((2S)-1-((3-chloro-1-isoquinolinyl)carbonyl)-2-pyrrolidinyl)-1H-benzimidazol-6-yl)ethynyl)-1H-benzimidazol-2-yl)-1-pyrrolidinyl)carbonyl)isoquinoline]	100 to 999 nM	
O=C(C(=O)N1CCC[C@H]1c1nc2cc(C#Cc3ccc4[nH]c([C@@H]5CCCN5C(=O)C(=O)c5ccccc5)nc4c3)ccc2[nH]1)c1ccccc1 [Example M26.3, 2.2′-(1,2-ethynediylbis(1H-benzimidazole-5,2-diyl(2S)-2,1-pyrrolidinediyl))bis(2-oxo-1-phenylethanone)]		EC50 (class symbols): 100 to 999 nM
O=C(OCc1ccccc1)N1CCC[C@H]1c1nc2cc(C#Cc3ccc4nc([C@@H]5CCCN5C(=O)OCc5ccccc5)[nH]c4c3)ccc2[nH]1 [Example M26.4, benzyl (2S)-2-(5-((2-((2S)-1-((benzyloxy)carbonyl)-2-pyrrolidinyl)-1H-benzimidazol-6-yl)ethynyl)-1H-benzimidazol-2-yl)-1-pyrrolidinecarboxylate]	4.57 to 99 nM	
O=C([C@@H]1CCCO1)N1CCC[C@H]1c1nc2cc(C#Cc3ccc4[nH]c([C@@H]5CCCN5C(=O)[C@@H]5CCCO5)nc4c3)ccc2[nH]1 [Example M26.5]		EC50 (class symbols): 100 to 999 nM
O=C(c1ccco1)N1CCC[C@H]1c1nc2cc(C#Cc3ccc4[nH]c([C@@H]5CCCN5C(=O)c5ccco5)nc4c3)ccc2[nH]1 [Example M26.6, 5,5′-(1,2-ethynediyl)bis(2-((2S)-1-(2-furoyl)-2-pyrrolidinyl)-1H-benzimidazole)]	4.57 to 99 nM	
C[C@H](NC(=O)[C@H](O)c1ccccc1)c1nc2cc(C#Cc3ccc4[nH]c([C@H](C)NC(=O)[C@H](O)c5ccccc5)nc4c3)ccc2[nH]1 [Example M27]		EC50 (class symbols): < 4.57 nM
C[C@H](NC(=O)[C@@](C)(O)c1ccccc1)c1nc2cc(C#Cc3ccc4[nH]c([C@H](C)NC(=O)[C@@](C)(O)c5ccccc5)nc4c3)ccc2[nH]1 [Example M28]		EC50 (class symbols): < 4.57 nM
C[C@H](NC(=O)[C@@H](c1ccccc1)N(C)C)c1nc2cc(C#Cc3ccc4nc([C@H](C)NC(=O)[C@@H](c5ccccc5)N(C)C)[nH]c4c3)ccc2[nH]1 [Example M29, (2R)-2-(dimethylamino)-N-((1S)-1-(5-((2-((1S)-1-(((2R)-2-(dimethylamino)-2-phenylacetyl)amino)ethyl)-1H-benzimidazol-6-yl)ethynyl)-1H-benzimidazol-2-yl)ethyl)-2-phenylacetamide]	< 4.57 nM	
CC(=O)N[C@@H](C(=O)N[C@@H](C)c1nc2cc(C#Cc3ccc4nc([C@H](C)NC(=O)[C@H](NC(C)=O)c5ccccc5)[nH]c4c3)ccc2[nH]1)c1ccccc1 [Example M30, (2R)-2-acetamido-N-((1S)-1-(5-((2-((1S)-1-(((2R)-2-acetamido-2-phenylacetyl)amino)ethyl)-1H-benzimidazol-6-yl)ethynyl)-1H-benzimidazol-2-yl)ethyl)-2-phenylacetamide]	< 4.57 nM	
COC(=O)N[C@@H](C(=O)N[C@@H](C)c1nc2cc(C#Cc3ccc4[nH]c([C@H](C)NC(=O)[C@H](NC(=O)OC)c5ccccc5)nc4c3)ccc2[nH]1)c1ccccc1 [Example M31, dimethyl (1,2-ethynediylbis(1H-benzimidazole-5,2-diyl(1S)-1,1-ethanediylimino((1R)-2-oxo-1-phenyl-2,1-ethanediyl)))biscarbamate]		EC50 [2]: 0.033 nM
C[C@@H](c1nc2cc(C#Cc3ccc4[nH]c([C@H](C)N(C)C(=O)Cc5ccccc5)nc4c3)ccc2[nH]1)N(C)C(=O)Cc1ccccc1 [Example M32]		EC50 (class symbols): < 4.57 nM
C[C@@H](c1nc2cc(C#Cc3ccc4[nH]c([C@H](C)N(C)C(=O)[C@H](O)c5ccccc5)nc4c3)ccc2[nH]1)N(C)C(=O)[C@H](O)c1ccccc1 [Example M33]		EC50 (class symbols): < 4.57 nM
C[C@@H](c1nc2cc(C#Cc3ccc4[nH]c([C@H](C)N(C)C(=O)[C@@](C)(O)c5ccccc5)nc4c3)ccc2[nH]1)N(C)C(=O)[C@@](C)(O)c1ccccc1 [Example M34]		EC50 (numeric values): 40 nM
C[C@@H](c1nc2cc(C#Cc3ccc4nc([C@H](C)N(C)C(=O)[C@@H](c5ccccc5)N(C)C)[nH]c4c3)ccc2[nH]1)N(C)C(=O)[C@@H](c1ccccc1)N(C)C [Example M35]		EC50 (class symbols): < 4.57 nM
COC(=O)N[C@@H](C(=O)N(C)[C@@H](C)c1nc2cc(C#Cc3ccc4[nH]c([C@H](C)N(C)C(=O)[C@H](NC(=O)OC)c5ccccc5)nc4c3)ccc2[nH]1)c1ccccc1 [Example M36, dimethyl (1,2-ethynediylbis(1H-benzimidazole-5,2-diyl(1S)-1,1-ethanediyl(methylimino)((1R)-2-oxo-1-phenyl-2,1-ethanediyl)))biscarbamate]		EC50 (numeric values): 0.005 nM
O=C(Cc1ccccc1)N1CCC[C@H]1c1nc2cc(C#Cc3ccc4[nH]c([C@@H]5CCCN5C(=O)Cc5ccccc5)nc4c3)ccc2[nH]1 [Example M37, 5,5′-(1,2-ethynediyl)bis(2-((2S)-1-(phenylacetyl)-2-pyrrolidinyl)-1H-benzimidazole)]	< 4.57 nM	
O=C(Cc1ccccc1)N1C[C@H](O)C[C@H]1c1nc2cc(C#Cc3ccc4[nH]c([C@@H]5C[C@@H](O)CN5C(=O)Cc5ccccc5)nc4c3)ccc2[nH]1 [Example M37.1, (3R,5S,3′R,5′S)-5,5′-(1,2-ethynediylbis(1H-benzimidazole-5,2-diyl))bis(1-(phenylacetyl)-3-pyrrolidinol)]	< 4.57 nM	
O=C(Cc1ccccc1)N1C[C@@H](N2CCCC2)C[C@H]1c1nc2cc(C#Cc3ccc4[nH]c([C@@H]5C[C@H](N6CCCC6)CN5C(=O)Cc5ccccc5)nc4c3)ccc2[nH]1 [Example M37.2, (3′S,5′S,3″″S,5″″S)-5′,5″-(1,2-ethynediylbis(1H-benzimidazole-5,2-diyl))bis(1′-(phenylacetyl)-1,3′-bipyrrolidine)]	< 4.57 nM	
O=C(Cc1ccccc1)N1C[C@@H](N2CCOCC2)C[C@H]1c1nc2cc(C#Cc3ccc4[nH]c([C@@H]5C[C@H](N6CCOCC6)CN5C(=O)Cc5ccccc5)nc4c3)ccc2[nH]1 [Example M37.3, 5,5′-(1,2-ethynediyl)bis(2-((2S,4S)-4-(4-morpholinyl)-1-(phenylacetyl)-2-pyrrolidinyl)-1H-benzimidazole)]	4.57 to 99 nM	
O=C(Cc1ccccc1)N1CCC[C@H]1c1nc2cc(CCc3ccc4[nH]c([C@@H]5CCCN5C(=O)Cc5ccccc5)nc4c3)ccc2[nH]1 [Example M38]	< 4.57 nM	
O=C(Cc1ccccc1)N1CCC[C@H]1c1nc2cc(-c3ccc4nc([C@@H]5CCCN5C(=O)Cc5ccccc5)[nH]c4c3)ccc2[nH]1 [Example M39, 2,2′-bis((2S)-1-(phenylacetyl)-2-pyrrolidinyl)-1H,1′H-5,5′-bibenzimidazole]	100 to 999 nM	
O=C(OCc1ccccc1)N1CCC[C@H]1c1nc2cc(-c3ccc4nc([C@@H]5CCCN5C(=O)OCc5ccccc5)[nH]c4c3)ccc2[nH]1 [Example M40, dibenzyl(2S,2′S)-2,2′-(1H,1′H-5,5′-bibenzimidazole-2,2′-diyl)di(1-pyrrolidinecarboxylate)]	100 to 999 nM	
O=C(C1CC1)N1CCC[C@H]1c1nc2ccc(CCc3ccc4nc([C@@H]5CCCN5C(=O)C5CC5)[nH]c4c3)cc2[nH]1 [Example M41, 2-((2S)-1-(cyclopropylcarbonyl)-2-pyrrolidinyl)-5-(2-(2-((2S)-1-(cyclopropylcarbonyl)-2-pyrrolidinyl)-1H-benzimidazol-6-yl)ethyl)-1H-benzimidazole]		EC50 [2]: 460 nM
O=C([C@H]1CCCO1)N1CCC[C@H]1c1nc2cc(CCc3ccc4[nH]c([C@@H]5CCCN5C(=O)[C@H]5CCCO5)nc4c3)ccc2[nH]1 [Example M42, 5,5′-(1,2-ethanediyl)bis(2-((2S)-1-((2R)-tetrahydro-2-furanylcarbonyl)-2-pyrrolidinyl)-1H-benzimidazole)]	4.57 to 99 nM	
O=C(Cc1ccccn1)N1CCC[C@H]1c1nc2cc(CCc3ccc4[nH]c([C@@H]5CCCN5C(=O)Cc5ccccn5)nc4c3)ccc2[nH]1 [Example M43, 5,5′-(1,2-ethanediyl)bis(2-((2S)-1-(2-pyridinylacetyl)-2-pyrrolidinyl)-1H-benzimidazole)]		EC50 (class symbols): 4.57 to 99 nM
O=C(CC1CC1)N1CCC[C@H]1c1nc2cc(CCc3ccc4nc([C@@H]5CCCN5C(=O)CC5CC5)[nH]c4c3)ccc2[nH]1 [Example M44, 2-((2S)-1-(cyclopropylacetyl)-2-pyrrolidinyl)-5-(2-(2-((2S)-1-(cyclopropylacetyl)-2-pyrrolidinyl)-1H-benzimidazol-6-yl)ethyl)-1H-benzimidazole]	100 to 999 nM	
O=C(C1CCC1)N1CCC[C@H]1c1nc2cc(CCc3ccc4nc([C@@H]5CCCN5C(=O)C5CCC5)[nH]c4c3)ccc2[nH]1 [Example M45, 2-((2S)-1-(cyclobutylcarbonyl)-2-pyrrolidinyl)-5-(2-(2-((2S)-1-(cyclobutylcarbonyl)-2-pyrrolidinyl)-1H-benzimidazol-6-yl)ethyl)-1H-benzimidazole]	100 to 999 nM	
O=C(c1cccs1)N1CCC[C@H]1c1nc2cc(CCc3ccc4[nH]c([C@@H]5CCCN5C(=O)c5cccs5)nc4c3)ccc2[nH]1 [Example M45.1, 5,5′-(1,2-ethanediyl)bis(2-((2S)-1-(2-thienylcarbonyl)-2-pyrrolidinyl)-1H-benzimidazole)]	100 to 999 nM	
O=C(Cc1cccnc1)N1CCC[C@H]1c1nc2cc(CCc3ccc4[nH]c([C@@H]5CCCN5C(=O)Cc5cccnc5)nc4c3)ccc2[nH]1 [Example M45.2, 5,5′-(1,2-ethanediyl)bis(2-((2S)-1-(3-pyridinylacetyl)-2-pyrrolidinyl)-1H-benzimidazole)]	4.57 to 99 nM	
COC(=O)N[C@H](C(=O)N1[C@@H]2C[C@@H]2C[C@H]1c1nc2ccc(-c3ccc(-c4ccc5nc([C@@H]6C[C@H]7C[C@H]7N6C(=O)[C@@H](NC(=O)OC)C(C)C)[nH]c5c4)cc3)cc2[nH]1)C(C)C [Example M46, methyl((1S)-1-(((1R,3S,5R)-3-(6-(4-(2-((1R,3S,5R)-2-((2S)-2-((methoxycarbonyl)amino)-3-methylbutanoyl)-2-azabicyclo[3.1.0]hex-3-yl)-1H-benzimidazol-6-yl)phenyl)-1H-benzimidazol-2-yl)-2-azabicyclo[3.1.0]hex-2-yl)carbonyl)-2-methylpropyl)carbamate]		EC50 [2]: 0.006 nM
